Holding throughout (experiment): biochemical
For assay [1], the target named is ABL2 (Homo sapiens, UniProt P42684).
The target of assay [2] is CAMKK2 (Homo sapiens, UniProt Q96RR4).
The target of assay [3] is T1, MAP3K6 (Homo sapiens, UniProt O95382).
T1 sequence (O95382 1-1288): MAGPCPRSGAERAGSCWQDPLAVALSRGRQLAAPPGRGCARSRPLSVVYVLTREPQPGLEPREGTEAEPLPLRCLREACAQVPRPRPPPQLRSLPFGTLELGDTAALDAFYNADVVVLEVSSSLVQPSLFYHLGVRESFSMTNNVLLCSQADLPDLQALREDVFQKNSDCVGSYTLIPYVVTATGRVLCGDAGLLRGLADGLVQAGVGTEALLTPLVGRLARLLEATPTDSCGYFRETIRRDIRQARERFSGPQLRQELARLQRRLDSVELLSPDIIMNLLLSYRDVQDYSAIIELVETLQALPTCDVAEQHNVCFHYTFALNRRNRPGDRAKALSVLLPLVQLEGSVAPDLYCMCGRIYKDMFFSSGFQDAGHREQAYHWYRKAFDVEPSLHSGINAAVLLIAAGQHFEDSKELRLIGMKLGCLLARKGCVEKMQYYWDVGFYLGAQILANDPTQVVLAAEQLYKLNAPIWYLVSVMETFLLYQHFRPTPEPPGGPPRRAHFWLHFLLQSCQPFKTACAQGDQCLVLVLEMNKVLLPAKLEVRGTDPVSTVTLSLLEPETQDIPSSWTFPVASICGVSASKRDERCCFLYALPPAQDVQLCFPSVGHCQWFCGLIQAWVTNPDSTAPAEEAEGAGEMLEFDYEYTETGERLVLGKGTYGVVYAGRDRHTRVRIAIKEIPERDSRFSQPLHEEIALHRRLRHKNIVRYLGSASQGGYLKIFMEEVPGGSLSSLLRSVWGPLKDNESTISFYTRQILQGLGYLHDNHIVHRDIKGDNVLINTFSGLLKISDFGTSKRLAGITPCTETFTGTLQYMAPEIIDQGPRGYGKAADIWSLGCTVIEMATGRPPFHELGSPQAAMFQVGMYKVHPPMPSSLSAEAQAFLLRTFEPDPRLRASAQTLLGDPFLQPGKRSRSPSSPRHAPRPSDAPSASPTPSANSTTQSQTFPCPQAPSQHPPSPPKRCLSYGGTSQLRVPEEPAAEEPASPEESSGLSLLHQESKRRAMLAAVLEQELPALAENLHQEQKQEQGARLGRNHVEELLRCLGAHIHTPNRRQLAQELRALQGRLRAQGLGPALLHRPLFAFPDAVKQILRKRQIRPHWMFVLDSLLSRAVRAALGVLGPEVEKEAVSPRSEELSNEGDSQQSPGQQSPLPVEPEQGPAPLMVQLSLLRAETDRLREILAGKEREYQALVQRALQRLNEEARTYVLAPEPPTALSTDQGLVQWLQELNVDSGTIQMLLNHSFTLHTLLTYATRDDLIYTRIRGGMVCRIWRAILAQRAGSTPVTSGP

The target of assay [4] is CDK7 (Homo sapiens, UniProt P50613).
Assay [5] concerns the target T2, MASTL (Homo sapiens, UniProt Q96GX5).
T2 sequence (Q96GX5 1-879): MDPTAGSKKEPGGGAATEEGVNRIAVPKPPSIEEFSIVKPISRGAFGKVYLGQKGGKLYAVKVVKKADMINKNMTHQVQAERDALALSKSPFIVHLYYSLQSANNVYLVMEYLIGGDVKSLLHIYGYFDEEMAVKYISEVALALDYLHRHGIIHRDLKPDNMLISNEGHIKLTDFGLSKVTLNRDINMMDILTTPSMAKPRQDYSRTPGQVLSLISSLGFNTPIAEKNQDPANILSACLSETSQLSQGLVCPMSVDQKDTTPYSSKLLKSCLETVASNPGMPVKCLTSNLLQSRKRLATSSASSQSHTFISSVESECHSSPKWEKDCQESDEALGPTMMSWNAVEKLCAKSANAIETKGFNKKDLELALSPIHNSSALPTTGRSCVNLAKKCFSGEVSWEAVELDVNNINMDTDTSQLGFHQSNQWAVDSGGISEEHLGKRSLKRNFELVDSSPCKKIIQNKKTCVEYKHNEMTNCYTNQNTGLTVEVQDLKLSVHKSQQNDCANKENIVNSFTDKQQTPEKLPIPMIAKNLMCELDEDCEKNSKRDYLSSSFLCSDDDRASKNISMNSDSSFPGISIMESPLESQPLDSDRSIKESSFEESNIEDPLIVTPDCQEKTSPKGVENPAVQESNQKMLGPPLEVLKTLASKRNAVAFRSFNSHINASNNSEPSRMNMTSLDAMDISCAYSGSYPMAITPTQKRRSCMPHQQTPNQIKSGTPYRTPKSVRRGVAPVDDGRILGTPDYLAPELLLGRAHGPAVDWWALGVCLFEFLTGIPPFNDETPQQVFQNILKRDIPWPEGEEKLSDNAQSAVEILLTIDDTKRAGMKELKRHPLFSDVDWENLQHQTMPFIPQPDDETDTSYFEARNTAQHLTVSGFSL

Where “and” joins values, the source holds several entries; their conditions need not be identical. Identical values can stand only once.

The term IC50 denotes the midpoint of a concentration-inhibition curve. Read a low IC50 as inhibition by little substance.

Chain of ABL2 (P42684 whole entry): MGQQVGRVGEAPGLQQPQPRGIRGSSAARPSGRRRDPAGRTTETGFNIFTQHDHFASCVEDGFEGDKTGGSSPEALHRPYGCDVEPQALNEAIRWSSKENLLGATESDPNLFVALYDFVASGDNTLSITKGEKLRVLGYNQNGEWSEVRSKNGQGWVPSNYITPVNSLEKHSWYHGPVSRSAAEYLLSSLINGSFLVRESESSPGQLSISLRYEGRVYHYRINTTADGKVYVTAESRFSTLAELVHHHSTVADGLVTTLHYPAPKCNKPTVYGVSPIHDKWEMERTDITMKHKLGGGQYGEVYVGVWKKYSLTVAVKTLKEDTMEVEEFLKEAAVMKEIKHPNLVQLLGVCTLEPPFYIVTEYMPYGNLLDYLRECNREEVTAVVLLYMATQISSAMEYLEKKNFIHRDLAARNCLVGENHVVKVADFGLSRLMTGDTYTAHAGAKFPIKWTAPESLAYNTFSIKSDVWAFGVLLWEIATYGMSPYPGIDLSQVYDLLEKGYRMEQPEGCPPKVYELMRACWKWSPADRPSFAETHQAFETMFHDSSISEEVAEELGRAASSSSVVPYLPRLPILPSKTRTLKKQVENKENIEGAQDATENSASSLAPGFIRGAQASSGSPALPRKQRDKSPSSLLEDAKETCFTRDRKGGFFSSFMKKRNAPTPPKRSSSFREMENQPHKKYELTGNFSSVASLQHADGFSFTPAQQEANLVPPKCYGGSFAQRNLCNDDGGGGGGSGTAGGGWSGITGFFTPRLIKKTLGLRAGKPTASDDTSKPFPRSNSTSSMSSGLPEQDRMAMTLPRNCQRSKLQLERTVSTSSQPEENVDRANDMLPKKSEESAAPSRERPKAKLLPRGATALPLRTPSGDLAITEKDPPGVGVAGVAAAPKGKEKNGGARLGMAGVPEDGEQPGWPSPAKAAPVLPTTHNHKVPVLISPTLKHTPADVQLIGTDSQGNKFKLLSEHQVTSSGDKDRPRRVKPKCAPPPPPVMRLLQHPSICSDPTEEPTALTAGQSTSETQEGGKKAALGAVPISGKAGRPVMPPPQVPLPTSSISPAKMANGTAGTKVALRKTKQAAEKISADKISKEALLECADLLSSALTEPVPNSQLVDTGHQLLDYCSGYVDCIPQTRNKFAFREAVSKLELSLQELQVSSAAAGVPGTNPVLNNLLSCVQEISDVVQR
Chain of CDK7 (P50613 whole entry): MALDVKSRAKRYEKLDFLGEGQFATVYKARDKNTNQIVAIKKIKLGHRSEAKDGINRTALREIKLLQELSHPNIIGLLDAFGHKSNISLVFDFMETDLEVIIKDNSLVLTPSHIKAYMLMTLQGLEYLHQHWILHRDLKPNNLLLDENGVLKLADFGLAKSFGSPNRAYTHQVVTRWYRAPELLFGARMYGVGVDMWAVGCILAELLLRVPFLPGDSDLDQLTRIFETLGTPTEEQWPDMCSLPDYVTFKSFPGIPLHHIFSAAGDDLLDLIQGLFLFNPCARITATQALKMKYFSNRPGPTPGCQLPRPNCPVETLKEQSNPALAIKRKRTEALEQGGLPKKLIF
Chain of CAMKK2 (Q96RR4 whole entry): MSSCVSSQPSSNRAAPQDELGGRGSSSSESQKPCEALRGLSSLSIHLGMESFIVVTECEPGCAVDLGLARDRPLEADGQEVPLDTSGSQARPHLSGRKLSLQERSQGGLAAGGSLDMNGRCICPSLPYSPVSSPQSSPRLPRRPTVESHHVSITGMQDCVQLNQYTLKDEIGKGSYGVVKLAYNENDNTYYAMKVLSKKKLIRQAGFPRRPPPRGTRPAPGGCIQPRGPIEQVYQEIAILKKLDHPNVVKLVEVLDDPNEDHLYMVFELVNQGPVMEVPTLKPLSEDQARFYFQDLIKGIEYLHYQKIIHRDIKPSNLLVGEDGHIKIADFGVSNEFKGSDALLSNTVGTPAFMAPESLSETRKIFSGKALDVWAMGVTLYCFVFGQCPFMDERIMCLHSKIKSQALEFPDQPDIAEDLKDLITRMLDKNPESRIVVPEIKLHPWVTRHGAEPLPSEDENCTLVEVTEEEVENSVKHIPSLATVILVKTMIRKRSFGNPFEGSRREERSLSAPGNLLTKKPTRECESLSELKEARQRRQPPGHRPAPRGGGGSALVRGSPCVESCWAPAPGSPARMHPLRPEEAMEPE

As for `CN1CCN(c2ccc(Nc3ncc(C#N)c(Nc4ccccc4C(N)=O)n3)cc2)CC1.Cl` [TCMDC-134116], the IC50 in assay [1] is 200 nM and 160 nM; in assay [2], 360 nM and 380 nM; in assay [3], 1600 nM and 1400 nM; in assay [4], 530 nM and 620 nM; in assay [5], 280 nM and 610 nM.

Take `Cl.NCC1(c2nc(-c3ccc(Cl)c(O)c3)c(-c3ccncc3)[nH]2)CCCCC1` [TCMDC-141154]: the IC50 in assay [1] is 490 nM and 400 nM; in assay [2] it was > 20000 nM; in assay [3], > 20000 nM; in assay [4] it was > 20000 nM; in assay [5] it was > 20000 nM.

Regarding `CN(C)CC(O)COc1ccc(Nc2ncc([N+](=O)[O-])c(Nc3ccccc3O)n2)cc1.O=C(O)C(F)(F)F` (stereo not drawn) [TCMDC-141399], the IC50 in assay [1] was 4200 nM; in assay [2], 5300 nM and 5600 nM; in assay [3], > 20000 nM; in assay [4], 1800 nM and 5800 nM; in assay [5] it was > 20000 nM.

The record behind these values is PMC4774911, “Biochemical Screening of Five Protein Kinases from Plasmodium falciparum against 14,000 Cell-Active Compounds” (PLoS ONE, 2016).
